Measured values as given in US6806230B1, “Pyrimidine derivatives and herbicides containing them” (Kumiai Chemical Industry Co., Ltd., priority 1999, dated 2004).

Tests used:
Format in all cases: in vivo
barnyard grass (Eo) = test: Test Example 1: herbicidal effects by flooded paddy field treatment; parameters: herbicidal effects, Eo (barnyard grass):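 0-5 growth inhibition grade; 5 = over 90%; 4 = 70-90%; 3 = 50-70%; 2 = 30-50%; 1 = 10-30%; 0 = under 10%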; conditions: for Herbicidal effect index, Eo: dose 100 gai/10a, examined on 21st day after treatment, index 0-5 per Table 44; for herbicidal effects, Eo (barnyard grass): dose 100 g active ingredient per 10 ares, examined on the 21st day after treatment, standards of Table 44;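 as to Herbicidal effect index, Eo: 0-5 growth inhibition grade; 5 = over 90%; 4 = 70-90%; 3 = 50-70%; 2 = 30-50%; 1 = 10-30%; 0 = under 10%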
Description: (§1) In a 100 cm^2 plastic pot, paddy field soil was filled and paddled. Then, seeds of barnyard grass (Eo) and monochoria (Mo) were sown, and water was introduced to a depth of 3 cm. Next day, a wettable powder prepared in accordance with Formulation Example 1 was diluted with water and dropwise applied to the water surface. The dose was 100 g of the active ingredient per 10 ares. Thereafter, cultivation was carried out in a green house, and on the 21st day after the treatment, the herbicidal effects were examined in accordance with the standards as identified in Table 44.

monochoria (Mo) = test: as above; parameters: herbicidal effects, Mo (monochoria):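 0-5 growth inhibition grade; 5 = over 90%; 4 = 70-90%; 3 = 50-70%; 2 = 30-50%; 1 = 10-30%; 0 = under 10%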; conditions: for Herbicidal effect index, Mo: dose 100 gai/10a, examined on 21st day after treatment, index 0-5 per Table 44; for herbicidal effects, Mo (monochoria): dose 100 g active ingredient per 10 ares, examined on the 21st day after treatment, standards of Table 44;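 as to Herbicidal effect index, Mo: 0-5 growth inhibition grade; 5 = over 90%; 4 = 70-90%; 3 = 50-70%; 2 = 30-50%; 1 = 10-30%; 0 = under 10%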
Description: as §1

barnyard grass (Ec) = test: Test Example 2: herbicidal effects by upland soil treatment; parameters: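 0-5 growth inhibition grade; 5 = over 90%; 4 = 70-90%; 3 = 50-70%; 2 = 30-50%; 1 = 10-30%; 0 = under 10%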; conditions: dose 100 g active ingredient per 10 ares, examined on the 21st day after treatment
Description: In a 80 cm^2 plastic pot, upland soil was filled, and seeds of barnyard grass (Ec) and green foxtail (Se) were sown and covered with soil. A wettable powder prepared in accordance with Formulation Example 1 was diluted with water and uniformly applied to the soil surface by means of a small size spray at a rate of 100 l per 10 ares, so that the dose of the active ingredient would be 100 g per 10 ares. Thereafter, cultivation was carried out in a green house, and on the 21st day after the treatment, the herbicidal effects were examined in accordance with the standards as identified in Table 44.

SMILES | Herbicidal effect index, Eo (barnyard grass (Eo)) | Herbicidal effect index, Mo (monochoria (Mo)) | herbicidal effects, Eo (barnyard grass) (barnyard grass (Eo)) | herbicidal effects, Mo (monochoria) (monochoria (Mo)) | Ec (herbicidal effects, index) (barnyard grass (Ec))
CN(C(=O)Cc1ccc(Cl)cc1)C(c1cncnc1C(F)(F)Cl)C1CC1 (racemic) [Compound 1-94] | 5 | 5 |  |  | 
CN(C(=O)Cc1cccc(F)c1)C(c1cncnc1C(F)(F)F)C(C)(C)C (racemic) [Compound 1-265] |  |  | 5 | 5 | 5
CCOC(OCC)C(c1cncnc1C(C)C)N(C)C(=O)OCc1ccccc1 (racemic) [1-458] |  |  | 5 | 5 | 5
CC(C)c1ncncc1C(C(C)C)N(C)C(=O)Cc1ccc(C(F)(F)F)cc1 (racemic) [1-310] |  |  | 5 | 5 | 5
CC(C)c1ncncc1C(C(C)C)N(C)C(=O)Cc1ccc(Cl)cc1F (racemic) [Compound 1-254] |  |  | 5 | 5 | 5
CCN(C(=O)Cc1cccs1)C(c1cncnc1C(F)(F)F)C(C)C (racemic) [2-9] |  |  | 5 | 5 | 5
CCOC(OCC)c1ncncc1C(C(C)C)N(C)C(=O)Cc1ccc(Cl)cc1 (racemic) [1-469] |  |  | 5 | 5 | 
CN(C(=O)Cc1ccsc1)C(c1cncnc1C(F)(F)F)C(C)(C)C (racemic) [2-14] |  |  | 5 | 5 | 5
C#CCN(C(=O)C(C)c1ccccc1)C(c1cncnc1CC)C(C)C (mixture of isomers) [1-562] |  |  | 5 | 5 | 5
CN(C(=O)Cc1ccccc1F)C(c1cncnc1C(F)(F)F)C1CCCC1 (racemic) [Compound 1-156] |  |  | 5 | 5 | 
CC(C)C(c1cncnc1C(F)(F)Cl)N(C)C(=O)Oc1ccc(F)cc1 (racemic) [1-184] |  |  | 5 | 5 | 
CON=Cc1ncncc1C(C(C)C)N(C)C(=O)OCc1ccccc1 (racemic) [1-471] |  |  |  |  | 5
C#CCN(C(=O)Cc1ccc(F)cc1)C(c1cncnc1C(F)(F)F)C(C)(C)C (racemic) [1-620] |  |  |  |  | 5
CC(C)C(c1cncnc1C(F)(F)F)N(C)C(=O)COc1cncc(Cl)c1 (racemic) [2-44] |  |  | 5 | 5 | 5
COCc1ncncc1C(C(C)C)N(C)C(=O)Cc1ccc(Cl)s1 (racemic) [2-77] |  |  | 5 | 5 | 5
CN(C(=O)Cc1cccs1)C(c1cncnc1C(F)(F)F)C(C)(C)C (racemic) [2-13] |  |  | 5 | 5 | 5
CC(C)C(c1cncnc1C(F)(F)Cl)N(C)C(=O)Oc1cccc2ccccc12 (racemic) [2-80] |  |  | 5 | 4 | 
CC(C)C(c1cncnc1C(F)(F)Cl)N(C)C(=O)Oc1ccccc1 (racemic) [Compound 1-19] | 5 | 5 |  |  | 
CCOC(=O)c1ncncc1C(C(C)C)N(C)C(=O)C(C)c1ccc(Cl)cc1 (single isomer, unassigned) [1-595] |  |  | 5 | 5 | 
CC(C)C(c1cncnc1C(F)(F)F)N(C)C(=O)COc1nnc(C(F)(F)F)s1 (racemic) [2-47] |  |  |  |  | 4
CC(C)c1ncncc1C(C(C)C)N(C)C(=O)Nc1ccccc1 (racemic) [1-326] |  |  |  |  | 4
CC(C)c1ncncc1C(C=NO)N(C)C(=O)OCc1ccccc1 (racemic) [1-531] |  |  |  |  | 4
COc1ccc(OC(=O)N(C)C(c2cncnc2C(F)(F)Cl)C(C)C)cc1 (racemic) [1-637] |  |  | 5 | 5 | 
CC(C)C(c1cncnc1C(F)(F)F)N(C)C(=O)Cn1cc(Br)cn1 (racemic) [2-41] |  |  | 5 | 5 | 

SMILES | Herbicidal effect index, Eo (barnyard grass (Eo)) | Herbicidal effect index, Mo (monochoria (Mo)) | herbicidal effects, Eo (barnyard grass) (barnyard grass (Eo)) | herbicidal effects, Mo (monochoria) (monochoria (Mo)) | Ec (herbicidal effects, index) (barnyard grass (Ec))
C#CCN(C(=O)Cc1ccc(Cl)cc1)C(c1cncnc1CCC)C(C)C (racemic) [1-618] |  |  |  |  | 5
CON(C(=O)Cc1ccccc1)C(c1cncnc1C(F)(F)F)C(C)C (racemic) [1-332] |  |  |  |  | 5
CC(C)C(c1cncnc1-c1ccccc1)N(C)C(=O)Cc1ccccc1 (racemic) [1-322] |  |  | 5 | 5 | 
CC(C)C(c1cncnc1C=NO)N(C)C(=O)Cc1ccc(F)cc1 (racemic) [1-501] |  |  | 5 | 5 | 
C#CCN(C(=O)Cc1ccccc1)C(c1cncnc1CCC)C(C)C (racemic) [1-616] |  |  |  |  | 5
C#CCN(C(=O)Cc1ccccc1)C(c1cncnc1C(C)C)C(C)C (racemic) [1-621] |  |  |  |  | 5
CSC(C(=O)N(C)C(c1cncnc1C(F)(F)F)C(C)C)c1ccc(Cl)cc1 (mixture of isomers) [Compound 1-154] |  |  | 5 | 5 | 
CCc1ncncc1C(CC)N(C)C(=O)Oc1ccc(Cl)cc1 (racemic) [1-646] |  |  |  |  | 4
CC(C)C(c1cncnc1C=O)N(C)C(=O)Cc1ccc(F)cc1 (centres unmarked) [Compound 1-523, N-[1-(4-formylpyrimidin-5-yl)-2-methylpropyl]-N-methyl-4-fluorophenylacetamide] |  |  |  |  | 4
COC(OC)c1ncncc1C(C(C)C)N(C)C(=O)C(C)c1ccc(Cl)cc1 (mixture of isomers) [1-625] |  |  |  |  | 4
CC(C)C(c1cncnc1C(F)(F)F)N(C)C(=O)Oc1ccc(Cl)cc1 (racemic) [1-178] |  |  | 5 | 4 | 
COC(C)(OC)C(c1cncnc1C(C)C)N(C)C(=O)Cc1ccc(F)cc1 (racemic) [1-510] |  |  | 5 | 5 | 
CC(C)C(c1cncnc1C(F)(F)F)N(C)C(=O)Cc1ccncc1 (racemic) [2-5] |  |  | 5 | 5 | 
CSCC(c1cncnc1C(F)(F)F)N(C)C(=O)Cc1cccc(F)c1 (racemic) [1-420] |  |  | 5 | 5 | 
CSCC(c1cncnc1C(F)(F)F)N(C)C(=O)Cc1ccc(C)cc1 (racemic) [1-421] |  |  | 5 | 5 | 
C#CCN(C(=O)Cc1ccc(Cl)cc1)C(c1cncnc1C(C)C)C(C)C (racemic) [1-623] |  |  |  |  | 5
CSCC(c1cncnc1C(F)(F)F)N(C)C(=O)Cc1ccc(Br)cc1 (racemic) [1-415] |  |  | 5 | 5 | 
Cc1ccc(CC(=O)N(C)C(C)c2cncnc2C(C)(C)C)cc1 (racemic) [1-191] |  |  | 5 | 5 | 
CON=CC(c1cncnc1C(C)C)N(C)C(=O)OCc1ccccc1 (racemic) [1-466] |  |  |  |  | 4
Cc1ccc(OC(=O)N(C)C(c2cncnc2C(F)(F)Cl)C(C)C)cc1 (racemic) [1-636] |  |  |  |  | 4
CSCC(c1cncnc1C(F)(F)F)N(C)C(=O)Cc1ccc(F)cc1 (racemic) [1-413] |  |  | 5 | 5 | 
CSCC(c1cncnc1C(F)(F)F)N(C)C(=O)Cc1ccc(Cl)cc1F (racemic) [1-422] |  |  | 5 | 5 | 
CC(C)C(c1cncnc1C(F)(F)Cl)N(C)C(=O)Oc1ccc(Cl)cc1 (racemic) [1-185] |  |  | 5 | 5 | 
